Test results as given in US20250296953A1, “3,4-THIAZOLO-STEROIDS AND METHODS OF MAKING AND USING THE SAME” (Arkansas State University - Jonesboro, priority 2018, published 2025).
pIC50: −log10 of the molar value. Read-outs that look alike come from different tables or passages of the source.

Experiments:
NCI-H522 (NSCLC) = assay: NCI 60 one dose screen; assay type: cell-based, human; conditions: Non-small Cell Lung Cancer
SF-295 = assay: NCI 60 one dose screen; assay type: cell-based, human; conditions: one dose; CNS Cancer; SF-295
SF-539 = assay: NCI 60 one dose screen; assay type: cell-based, human; conditions: one dose; CNS Cancer; SF-539
HCT-15 (Colon Cancer) = assay: NCI 60 one dose screen; assay type: cell-based, human
SK-MEL-25 = assay: Melanoma cytotoxicity assay (resazurin); assay type: cell-based; conditions: for pIC50: Homo sapiens
Outline: (§1)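 ~4000 cells/well, 24 h attach, 37° C/5% CO2; cpd triplicate, 24 h; resazurin 6 h; fluor 544/590 nm. % viability vs DMSO after media-blank subtraction; IC50 from dilution series, sigmoidal fit.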

SK-MEL-28 = assay: Melanoma cytotoxicity assay (resazurin); assay type: cell-based; conditions: for pIC50: Homo sapiens
Outline: as §1

SK-MEL-5 = assay: Melanoma cytotoxicity assay (resazurin); assay type: cell-based
Outline: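 ~4000 cells/well seeded 24 h, then compound added in triplicate for 24 h at 37° C, 5% CO2. Resazurin added for 6 h; fluorescence at 544/590 nm, background-subtracted and normalised to DMSO wells as % viability; IC50 from sigmoidal fit of serial dilutions.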

[1] = system: 60 different human tumor cell lines; assay: NCI Development Therapeutics Program 60 cell line screen, one dose; assay type: cell-based
MALME-3M = assay: Melanoma cytotoxicity assay (resazurin); assay type: cell-based; conditions: human, 24 h
Method: On day 1, the cell line trypsinized and centrifuged to form cell pellet. The pellet was diluted in media, then counted using Countess automated cell counter. Approximately 4000 cells (198 uL) per well plated in […]. A control well of 200 uL growth media was also prepared. Wells closest to plate perimeter were filled with 200 uL PBS to prevent inner well evaporation. The 96 well plates are incubated in 37° C. incubator at 5% CO2 for 24 hours.
On day 2, compounds were added (in triplicate) along with DMSO/Dacarbazine controls (2 uL) added to bring wells to volume of 200 μL. The 96 well plates are incubated in 37° C. incubator at 5% CO2 for 24 hours.
On day 3, 40 μL of 0.15 mg/ml reszurin solution added to wells. Samples were placed in a 37° C. incubator at 5% CO2 for 6 hours. Excitation and emission for fluorescence measured at 544 nm and 590 nm using BMG Labtech Fluostar Optima plate reader
Percent viability determined by taking average of each triplicate well fluorescence and subtracting GM well reading to remove the background signal. This difference is then divided by the average of the negative control (DMSO) wells to determine percent viability.
IC50s were determined by using cereal dilution of compound to determine viability. Viabilities and concentration of cells are analyzed in Graphpad Prism by creating sigmoidal curve graph, which will determine the IC50 concentration.
We analyzed the ability of the thiazole-androstane derivatives to inhibit growth in various melanoma cell lines. The growth inhibition against melanoma cell lines of various compound is shown below in Tables 19 and 20. Inhibition results are reported as the IC50 concentration in μM of the indicated compound or as the percent viability […] of the indicated compound. NA=not available.

HFF-1 = assay: Cytotoxicity assay (resazurin); assay type: cell-based; conditions: Homo sapiens, HFF-1 cells
LOX IMVI = assay: Melanoma cytotoxicity assay (resazurin); assay type: cell-based; conditions: for pIC50: Homo sapiens, LOX IMVI melanoma cells
Outline: as §1

In the case of `CN(c1ccccc1)c1nc2c(s1)CC[C@@]1(C)C2=CC[C@@H]2[C@@H]1CC[C@]1(C)C(=O)CC[C@@H]21` [IIa.6, (1S,2R,13R,14S,18S)-2,18-dimethyl-7-(N-methylanilino)-6-thia-8-azapentacyclo[11.7.0.02,10.05,9.014,18]icosa-5(9),7,10-trien-17-one], the “Growth Percent” value (NCI-H522 (NSCLC)) was 8.26%, the “Growth Percent” value (SF-295) was 42.68% and the “Growth Percent” value (SF-539) was 51.35%. The “Growth Percent” value (HCT-15 (Colon Cancer)) was 35.23%, the “SK-MEL-25 (% inhibition)” value (SK-MEL-25; SK-MEL-25 melanoma cells, 24 hours with compound, resazurin, concentration not given) was 60% and the “SK-MEL-28 (% inhibition)” value (SK-MEL-28; SK-MEL-28 melanoma cells, 24 hours with compound, resazurin, concentration not given) was 60%. The “SK-MEL-5 (% inhibition)” value (SK-MEL-5; SK-MEL-5 melanoma cells, 24 hours with compound, resazurin, concentration not given) was 63%, the “Growth Percent” value ([1]; Breast Cancer, BT-549) was 45.19% and the “Growth Percent” value ([1]; Breast Cancer, HS 578T) was 54.53%. For the same compound, the “Growth Percent” value ([1]; Breast Cancer, MCF7) was 32.55%, the “Growth Percent” value ([1]; Breast Cancer, MDA-MB-231/ATCC) was 68.22% and the “Growth Percent” value ([1]; Breast Cancer, MDA-MB-468) was 29.56%. For the same compound, the “Growth Percent” value ([1]; Breast Cancer, T-47D) was 65.84%, the “Growth Percent” value ([1]; CNS Cancer, SF-268) was 73.87% and the “Growth Percent” value ([1]; CNS Cancer, SNB-19) was 54.72%. For the same compound, the “Growth Percent” value ([1]; CNS Cancer, SNB-75) was 73.17%, the “Growth Percent” value ([1]; CNS Cancer, U251) was 36.99% and the “Growth Percent” value ([1]; Colon Cancer, COLO 205) was 48.79%. For the same compound, the “Growth Percent” value ([1]; Colon Cancer, HCC-2998) was 82.14%, the “Growth Percent” value ([1]; Colon Cancer, HCT-116) was 32.71% and the “Growth Percent” value ([1]; Colon Cancer, HT29) was 10.25%. For the same compound, the “Growth Percent” value ([1]; Colon Cancer, KM12) was 33.11%, the “Growth Percent” value ([1]; Colon Cancer, SW-620) was 44.14% and the “Growth Percent” value ([1]; Leukemia, CCRF-CEM) was 44.17%. The “Growth Percent” value ([1]; Leukemia, HL-60(TB)) was 44.55%, the “Growth Percent” value ([1]; Leukemia, MOLT-4) was 45.63% and the “Growth Percent” value ([1]; Leukemia, RPMI-8226) was 48.36%. For the same compound, the “Growth Percent” value ([1]; Leukemia, SR) was 31.74%, the “Growth Percent” value ([1]; Melanoma, LOX IMVI) was 66.30% and the “Growth Percent” value ([1]; Melanoma, M14) was 41.12%. The “Growth Percent” value ([1]; Melanoma, MALME-3M) was 55.43%, the “Growth Percent” value ([1]; Melanoma, MDA-MB-435) was 2.34% and the “Growth Percent” value ([1]; Melanoma, SK-MEL-2) was 49.76%. The “Growth Percent” value ([1]; Melanoma, SK-MEL-5) was 32.53%, the “Growth Percent” value ([1]; Melanoma, SK-MEL-28) was 72.19% and the “Growth Percent” value ([1]; Melanoma, UACC-62) was 38.23%. The “Growth Percent” value ([1]; Melanoma, UACC-257) was 67.13%, the “Growth Percent” value ([1]; Non-small Cell Lung Cancer, A549/ATCC) was 47.72% and the “Growth Percent” value ([1]; Non-small Cell Lung Cancer, EKVX) was 78.34%. For the same compound, the “Growth Percent” value ([1]; Non-small Cell Lung Cancer, HOP-62) was 70.07%, the “Growth Percent” value ([1]; Non-small Cell Lung Cancer, HOP-92) was 78.79% and the “Growth Percent” value ([1]; Non-small Cell Lung Cancer, NCI-H23) was 79.64%. For the same compound, the “Growth Percent” value ([1]; Non-small Cell Lung Cancer, NCI-H226) was 83.39%, the “Growth Percent” value ([1]; Non-small Cell Lung Cancer, NCI-H322M) was 89.66% and the “Growth Percent” value ([1]; Non-small Cell Lung Cancer, NCI-H460) was 38.69%. For the same compound, the “Growth Percent” value ([1]; Ovarian Cancer, IGROV1) was 67.27%, the “Growth Percent” value ([1]; Ovarian Cancer, NCI/ADR-RES) was 43.96% and the “Growth Percent” value ([1]; Ovarian Cancer, OVCAR-3) was 36.20%. The “Growth Percent” value ([1]; Ovarian Cancer, OVCAR-4) was 83.97%, the “Growth Percent” value ([1]; Ovarian Cancer, OVCAR-5) was 98.72% and the “Growth Percent” value ([1]; Ovarian Cancer, OVCAR-8) was 76.81%. The “Growth Percent” value ([1]; Ovarian Cancer, SK-OV-3) was 79.14%, the “Growth Percent” value ([1]; Prostate Cancer, DU-145) was 79.22% and the “Growth Percent” value ([1]; Prostate Cancer, PC-3) was 71.01%. The “Growth Percent” value ([1]; Renal Cancer, 786-0) was 58.79%, the “Growth Percent” value ([1]; Renal Cancer, A498) was 50.67% and the “Growth Percent” value ([1]; Renal Cancer, ACHN) was 93.66%. For the same compound, the “Growth Percent” value ([1]; Renal Cancer, CAKI-1) was 61.11%, the “Growth Percent” value ([1]; Renal Cancer, RXF 393) was 79.66% and the “Growth Percent” value ([1]; Renal Cancer, SN12C) was 77.26%. The “Growth Percent” value ([1]; Renal Cancer, TK-10) was 91.08% and the “Growth Percent” value ([1]; Renal Cancer, UO-31) was 79.34%.

For `Cc1ccc(Nc2nc3c(s2)C2=CC[C@H]4[C@@H]5CC[C@H](O)[C@@]5(C)CC[C@@H]4[C@@]2(C)CC3)cc1` [IIIa.33, (1S,2R,13R,14S,17S,18S)-2,18-dimethyl-7-(4-methylanilino)-8-thia-6-azapentacyclo[11.7.0.02,10.05,9.014,18]icosa-5(9),6,10-trien-17-ol], the “MALME-3M (% viability)” value (MALME-3M) was 23.03%, the pIC50 (HFF-1; read-out: HFF-1 (IC50)) was 4.89 and the pIC50 (HFF-1; read-out: IC50 in cell line HFF-1) was 4.89. For the same compound, the pIC50 (SK-MEL-25; SK-MEL-25 melanoma cells (head prints SK-25), read-out: SK-25 IC50) was 5.22, the pIC50 (SK-MEL-25; SK-MEL-25 melanoma cells, 24 hours, resazurin, read-out: SK-MEL-25 (IC50)) was over 5.00 and the “SK-MEL-25 (% viability)” value (SK-MEL-25; human, 24 h) was 7.53%. For the same compound, the pIC50 (LOX IMVI) was 5.33, the pIC50 (LOX IMVI; 24 hours, resazurin) was over 5.00 and the “LOX-IMVI (% viability)” value (LOX IMVI; human, 24 h) was 6%. The pIC50 (SK-MEL-28; SK-MEL-28 melanoma cells) was 5.22, the pIC50 (SK-MEL-28; SK-MEL-28 melanoma cells, 24 hours, resazurin) was over 5.00 and the “SK-MEL-28 (% viability)” value (SK-MEL-28; human, 24 h) was 0.90%. The “SK-MEL-5 (% viability)” value (SK-MEL-5; human, 24 h) was 1.21%.
